Data published in patent US9796742B2, “Kinase inhibitors” (Respivert Limited, priority 2012, dated 2017).
pIC50: −log10 of the molar value.

Key:
[1] = molecular target: GSK3α (Homo sapiens (Human), UniProt P49840); experiment: GSK 3α enzyme inhibition (FRET, Z-LYTE; Method 2); format: biochemical
Protocol: (§1) The enzyme inhibitory activities of compounds disclosed herein are determined by FRET using synthetic peptides labelled with both donor and acceptor fluorophores (Z-LYTE, Invitrogen Ltd., Paisley, UK).
The inhibitory activities of compounds of the invention against the GSK 3α enzyme isoform (Invitrogen), are evaluated by determining the level of activation/phosphorylation of the target peptide. The GSK3-α protein (500 ng/mL, 2.5 μL) is mixed with the test compound (2.5 μL at either 4 μg/mL, 0.4 μg/mL, 0.04 μg/mL, or 0.004 μg/mL) for 2 hr at RT. The FRET peptide (8 μM, 2.5 μL), which is a phosphorylation target for GSK3α, and ATP (40 μM, 2.5 μL) are then added to the enzyme/compound mixture and the resulting mixture incubated for 1 hr. Development reagent (protease, 5 μL) is added for 1 hr prior to detection in a fluorescence microplate reader (Varioskan® Flash, ThermoFisher Scientific).
(§2) In all cases, the site-specific protease cleaves non-phosphorylated peptide only and eliminates the FRET signal. Phosphorylation levels of each reaction are calculated using the ratio of coumarin emission (donor) over fluorescein emission (acceptor), for which high ratios indicate high phosphorylation and low ratios indicate low phosphorylation levels. The percentage inhibition of each reaction is calculated relative to non-inhibited control and the 50% inhibitory concentration (IC50 value) is then calculated from the concentration-response curve.
This method follows the same steps as Method 1 above, but utilises a shorter period of mixing of the test compound (105 minutes instead of 2 hours) with the GSK3-α protein.

[2] = tested on: PBMCs; experiment: LPS-induced TNFα/IL-8 release in PBMC cells; format: cell-based; conditions: Homo sapiens, LPS-stimulated PBMCs, IL-8, read-out: IC50 Values for Inhibition of Cytokine Release, PBMCs IL-8
Protocol: Peripheral blood mononuclear cells (PBMCs) from healthy subjects are separated from whole blood using a density gradient (Lymphoprep, Axis-Shield Healthcare). The PBMCs are seeded in 96 well plates and treated with compounds at the desired concentration for 2 hours before addition of 1 ng/mL LPS (Escherichia Coli 0111:B4 from Sigma Aldrich) for 24 hours under normal tissue culture conditions (37° C., 5% CO2). The supernatant is harvested for determination of IL-8 and TNFα concentrations by sandwich ELISA (Duo-set, R&D systems) and read on the fluorescence microplate reader (Varioskan® Flash, ThermoFisher Scientific). The concentration at 50% inhibition (IC50) of IL-8 and TNFα production is calculated from the dose response curve.

[3] = tested on: PBMCs; experiment: IL-2 and IFN gamma release in CD3/CD28 stimulated PBMC cells; format: cell-based; conditions: Homo sapiens, IL-2, read-out: IC50 Values for Inhibition of Cytokine Release, PBMCs IL-2
Protocol: PBMCs from healthy subjects are separated from whole blood using a density gradient (Lymphoprep, Axis-Shield Healthcare). Cells are added to a 96 well plate pre-coated with a mixture of CD3/[…] monoclonal antibodies (0.3 μg/mL eBioscience and 3 μg/mL BD Pharmingen respectively). Compound at the desired concentration is then added to the wells and the plate left for 3 days under normal tissue culture conditions. Supernatants are harvested and IL-2 and IFN gamma release determined by Sandwich ELISA (Duo-set, R&D System). The IC50 is determined from the dose response curve.

[4] = molecular target: p38 MAPKα (Homo sapiens (Human), UniProt Q16539); experiment: p38 MAPKα enzyme inhibition (FRET, Z-LYTE; Method 2); format: biochemical
Protocol: as §1
The inhibitory activities of test compounds against the p38 MAPKα isoform (MAPK14: Invitrogen), are evaluated indirectly by determining the level of activation/phosphorylation of the down-stream molecule, MAPKAP-K2. The p38 MAPKα protein (80 ng/mL, 2.5 μL) is mixed with the test compound (2.5 μL of either 4 μg/mL, 0.4 μg/mL, 0.04 μg/mL or 0.004 μg/mL) for 2 hr at RT. […] The mixture is incubated for 1 hr at RT. Development reagent (protease, 5 μL) is added for 1 hr prior to detection in a fluorescence microplate reader (Varioskan® Flash, ThermoFisher Scientific).
Method 2 This method follows the same steps as Method 1 above, but utilises a higher concentration of the p38 MAPKα protein (2.5 μL of 200 ng/mL protein instead of 2.5 μL of 80 ng/mL protein) for mixing with the test compound.
as §2

[5] = molecular target: c-Src (Homo sapiens (Human), UniProt P12931); experiment: c-Src enzyme inhibition (FRET, Z-LYTE); format: biochemical
Protocol: as §1
(§3) The inhibitory activities of compounds of the invention against c-Src and Syk enzymes (Invitrogen), are evaluated in a similar fashion to that described hereinabove. The relevant enzyme (3000 ng/mL or 2000 ng/mL respectively, 2.5 μL) is incubated with the test compound (either 4 μg/mL, 0.4 μg/mL, 0.04 μg/mL, or 0.004 μg/mL, 2.5 μL each) for 2 hr at RT. The FRET peptides (8 μM. 2.5 μL), and appropriate ATP solutions (2.5 μL, 800 μM for c-Src, and 60 μM ATP for Syk) are then added to the enzymes/compound mixtures and incubated for 1 hr. Development reagent (protease, 5 μL) is added for 1 hr prior to detection in a fluorescence microplate reader (Varioskan® Flash, ThermoFisher Scientific).
as §2

[6] = molecular target: Syk (Homo sapiens (Human), UniProt P43405); experiment: Syk enzyme inhibition (FRET, Z-LYTE); format: biochemical
Protocol: as §1, §3, §2

p38 MAPKα, sequence (Q16539 whole entry): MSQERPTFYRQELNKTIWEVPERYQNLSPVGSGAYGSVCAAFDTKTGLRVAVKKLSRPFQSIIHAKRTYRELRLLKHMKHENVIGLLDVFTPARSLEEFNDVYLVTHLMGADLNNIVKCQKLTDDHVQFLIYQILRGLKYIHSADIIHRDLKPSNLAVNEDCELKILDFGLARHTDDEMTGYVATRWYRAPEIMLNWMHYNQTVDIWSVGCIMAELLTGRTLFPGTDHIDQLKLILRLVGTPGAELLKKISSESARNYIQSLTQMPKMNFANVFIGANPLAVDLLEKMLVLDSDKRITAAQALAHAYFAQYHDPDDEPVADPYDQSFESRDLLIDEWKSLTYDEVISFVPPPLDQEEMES
GSK3α, sequence (P49840 whole entry): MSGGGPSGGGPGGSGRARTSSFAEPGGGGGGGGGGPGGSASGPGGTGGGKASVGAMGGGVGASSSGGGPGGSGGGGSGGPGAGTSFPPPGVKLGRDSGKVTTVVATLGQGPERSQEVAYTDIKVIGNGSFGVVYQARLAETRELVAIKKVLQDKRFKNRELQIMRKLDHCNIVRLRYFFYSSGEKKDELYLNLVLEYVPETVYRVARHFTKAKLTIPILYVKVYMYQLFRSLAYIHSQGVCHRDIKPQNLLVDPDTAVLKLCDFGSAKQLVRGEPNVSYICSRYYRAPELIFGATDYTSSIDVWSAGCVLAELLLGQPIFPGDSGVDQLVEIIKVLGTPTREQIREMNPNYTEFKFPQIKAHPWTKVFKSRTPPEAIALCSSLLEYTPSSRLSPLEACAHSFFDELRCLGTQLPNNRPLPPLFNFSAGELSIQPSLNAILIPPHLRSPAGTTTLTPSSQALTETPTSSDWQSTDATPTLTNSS
c-Src, sequence (P12931 whole entry, looked up): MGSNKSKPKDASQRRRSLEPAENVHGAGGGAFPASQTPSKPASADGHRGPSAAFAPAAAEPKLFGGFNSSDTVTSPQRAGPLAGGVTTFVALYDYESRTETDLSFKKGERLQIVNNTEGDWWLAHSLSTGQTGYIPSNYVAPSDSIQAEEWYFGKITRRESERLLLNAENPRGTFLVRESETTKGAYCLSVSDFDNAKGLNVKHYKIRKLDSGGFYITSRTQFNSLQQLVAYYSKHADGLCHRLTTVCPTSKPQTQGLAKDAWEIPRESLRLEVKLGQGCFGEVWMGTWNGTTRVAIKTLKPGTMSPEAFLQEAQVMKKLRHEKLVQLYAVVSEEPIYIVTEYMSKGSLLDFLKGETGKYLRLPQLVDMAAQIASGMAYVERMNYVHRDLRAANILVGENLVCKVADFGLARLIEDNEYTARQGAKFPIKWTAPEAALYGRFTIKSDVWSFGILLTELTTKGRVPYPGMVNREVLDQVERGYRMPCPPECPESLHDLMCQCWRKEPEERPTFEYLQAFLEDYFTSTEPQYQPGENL

Which results are given for `C[Si](C)(C)c1cc(NC(=O)Nc2ccc(Oc3ccnc(Nc4ccccc4)n3)c3ccccc23)n(-c2cccc(CP(C)(C)=O)c2)n1` [Example 35, 1-(1-(3-((Dimethylphosphoryl)methyl)phenyl)-3-(trimethylsilyl)-1H-pyrazol-5-yl)-3-(4-((2-(phenylamino)pyrimidin-4-yl)oxy)naphthalen-1-yl)urea]?
pIC50 [1]: 5.90; pIC50 [2]: 8.12; pIC50 [3]: 7.11

How did the pIC50 [4] turn out when `CCP(=O)(CC)Cc1cccc(-n2nc(C(C)(C)C)cc2NC(=O)Nc2ccc(Oc3ccnc(Nc4cc(C)c5[nH]ncc5c4)n3)c3ccccc23)c1` [Example 36, 1-(3-(tert-Butyl)-1-(3-((diethylphosphoryl)methyl)phenyl)-1H-pyrazol-5-yl)-3-(4-((2-((7-methyl-1H-indazol-5-yl)amino)pyrimidin-4-yl)oxy)naphthalen-1-yl)urea] was run?
Its pIC50 is 6.80.

What about the pIC50 [5] of the same compound?
The pIC50 was 8.10.

What about the pIC50 [6] of the same compound?
The pIC50 was 8.05.

And the pIC50 [1]?
The pIC50 was 5.47.

And the pIC50 [2]?
The pIC50 was 8.46.

How did the pIC50 [4] turn out when `Cc1cc(Nc2nccc(Oc3ccc(NC(=O)Nc4cc(C(C)C)nn4-c4cccc(CP(C)(C)=O)c4)c4ccccc34)n2)cc2cn[nH]c12` [Example 37, 1-(1-(3-((Dimethylphosphoryl)methyl)phenyl)-3-isopropyl-1H-pyrazol-5-yl)-3-(4-((2-((7-methyl-1H-indazol-5-yl)amino)pyrimidin-4-yl)oxy)naphthalen-1-yl)urea] was run?
Its pIC50 is 7.15.

And the pIC50 [5]?
The pIC50 was 8.00.

And the pIC50 [6]?
Its pIC50 is 8.30.

What about the pIC50 [1] of the same compound?
Its pIC50 is 5.31.

What about the pIC50 [2] of the same compound?
Its pIC50 is 8.52.

How did the pIC50 [4] turn out when `COc1cc(Nc2cc(Oc3ccc(NC(=O)Nc4cc(C(C)C)nn4-c4cccc(CP(C)(C)=O)c4)c4ccccc34)ccn2)cc(C(=O)NCCN2CCOCC2)c1` [Example 50, 3-((4-((4-(3-(1-(3-((Dimethylphosphoryl)methyl)phenyl)-3-isopropyl-1H-pyrazol-5-yl)-ureido)naphthalen-1-yl)oxy)pyridin-2-yl)amino)-5-methoxy-N-(2-morpholinoethyl)-benzamide] was run?
The pIC50 was 7.62.

What about the pIC50 [1] of the same compound?
The pIC50 was 5.68.

And the pIC50 [2]?
Its pIC50 is 9.00.

And the pIC50 [3]?
The pIC50 was 7.79.

`COc1cc(Nc2cc(Oc3ccc(NC(=O)Nc4cc(C(C)C)nn4-c4cccc(CP(C)(C)=O)c4)c4ccccc34)ccn2)cc(OCCN2CCOCC2)c1` [Example 51, 1-(1-(3-((Dimethylphosphoryl)methyl)phenyl)-3-isopropyl-1H-pyrazol-5-yl)-3-(4-((2-((3-methoxy-5-(2-morpholinoethoxy)phenyl)amino)pyridin-4-yl)oxy)naphthalen-1-yl)urea] was tested. Which pIC50 [4] did it give?
The pIC50 was 7.24.

What about the pIC50 [5] of the same compound?
Its pIC50 is 8.10.

What about the pIC50 [1] of the same compound?
The pIC50 was 5.55.

And the pIC50 [2]?
The pIC50 was 9.30.

And the pIC50 [3]?
Its pIC50 is 8.21.

Which results are given for `COCCOCCOCCOCCOc1cc(Nc2nccc(Oc3ccc(NC(=O)Nc4cc(C(C)C)nn4-c4cccc(CP(C)(C)=O)c4)c4ccccc34)n2)cc(OC)c1` [Example 52, 1-(4-((2-((3-(2,5,8,11-Tetraoxatridecan-13-yloxy)-5-methoxyphenyl)amino)pyrimidin-4-yl)oxy)naphthalen-1-yl)-3-(1-(3-((dimethylphosphoryl)methyl)phenyl)-3-isopropyl-1H-pyrazol-5-yl)urea]?
pIC50 [4]: 7.74; pIC50 [5]: 8.52; pIC50 [6]: 8.40; pIC50 [1]: 5.92; pIC50 [2]: 8.48; pIC50 [3]: 7.94

`CC(C)c1cc(NC(=O)Nc2ccc(Oc3ccnc(Nc4cc(C#N)cc(OCCN5CCOCC5)c4)n3)c3ccccc23)n(-c2cccc(CP(C)(C)=O)c2)n1` [Example 57, 1-(4-((2-((3-cyano-5-(2-morpholinoethoxy)phenyl)amino)pyrimidin-4-yl)oxy)-naphthalen-1-yl)-3-(1-(3-((dimethylphosphoryl)methyl)phenyl)-3-isopropyl-1H-pyrazol-5-yl)urea] was tested. Which pIC50 [4] did it give?
The pIC50 was 7.68.

And the pIC50 [5]?
Its pIC50 is 8.05.

And the pIC50 [6]?
Its pIC50 is 8.15.

And the pIC50 [1]?
Its pIC50 is 5.90.

And the pIC50 [2]?
Its pIC50 is 8.57.

And the pIC50 [3]?
Its pIC50 is 7.98.
